Data taken from PMC8113459, “Selective inhibition of cullin 3 neddylation through covalent targeting DCN1 protects mice from acetaminophen-induced liver toxicity” (Nature Communications, 2021).
“And” between values parts separate entries of the source, which are not always exact repeats. Equal entries are not always repeated.

Assays:
HO-1 mRNA = test: RT-PCR, HO-1 mRNA in THLE2 cells; type: cell-based, human; details: for HO-1 mRNA level relative to control: THLE2, 10 nM, replicates
Protocol: Supplementary Figure 23. DI‐1859 increases the mRNA level of NRF2 ta rge te d genes NQO1 and
HO‐1. THLE2 cells we re treated with DI‐1859 at 10 nM fo r 4, 8 and 24 h. Tr e a t e d cells were
harvested and the mRNA level of HO‐1 and NQO1 we re exa m i n e d by RT‐PCR assay. The probes
Scientific (Ann Arbor, MI). Data are presented as mean values with n = 2 independent biological […]

mice = test: 14-day toxicity study in mice; type: in vivo, mouse; details: for whole animal: body weight of individual male mouse; for whole animal / AdrenalGlands / Brain / Epidimydes (paired) / Heart / KidneyL / KidneyR / Liver / Spleen / Testes (paired) / Thymus: in g (unit assumed); for AdrenalGlands / Brain / Epidimydes (paired) / Heart / KidneyL / KidneyR / Liver / Spleen / Testes (paired) / Thymus: organ weight of individual male mouse; for RelGonads / Relative KidneyL / RelativeHeart / RelativeKidneyR / RelativeLiver / RelativeSpleen / RelativeThymus / RelAdrenGl / RelBrain / RelEpid: organ weight relative to whole animal; for RelAdrenGl / RelBrain / RelEpid: in % (unit assumed)
Protocol: We evaluated DI-1859 for its potential toxicity in immunocompetent mice with daily, 50 mg/kg, intraperitoneal (IP) dosing for 14 consecutive days (Supplementary Table 3).
Supplementary Table 3. Overview Toxicity Study design DI-1859 study.
Group # # of Mice Drug Vol./ Test Article Treatment Diluent
(male/female) Route mouse dose Schedule

[1] = Clin Chem, individual male mouse, 50 mg/kg, 14 day, vehicle 20% PCP, listed as DI-1589, 50 mg/kg, in U/L (unit assumed)
[2] = Hemavet Values, individual male mouse, 50 mg/kg, 14 day, vehicle 20% PCP, listed as DI-1589, 50 mg/kg
[3] = 50 mg/kg, 14 day, vehicle 20% PCP
[4] = 50 mg/kg, 14 day, vehicle 20% PCP, listed as DI-1589, 50 mg/kg
[5] = mice, 50 mg/kg IP daily for 14 days
[6] = mice, 50 mg/kg IP qD(1-14), mean ± s.d., n=5
[7] = individual male mouse, 50 mg/kg, 14 day
[8] = individual male mouse, 50 mg/kg, 14 day, listed as DI-1589, 50 mg/kg
[9] = serum, mice, 50 mg/kg IP qD(1-14), mean ± s.d., n=5

## C=C(CN(C)C)C(=O)NC[C@@H](NC(=O)[C@H](Cc1nc2ccc(C(C)C)cc2s1)NC(=O)CC)C1CCCCC1 [DI-1859]
HO-1 mRNA; 4 h (time from row order and b199)
  HO-1 mRNA level relative to control: 1.5 and 1.6
HO-1 mRNA; 8 h (time from row order and b199)
  HO-1 mRNA level relative to control: 1.7 and 1.9
HO-1 mRNA; 24 h (time from row order and b199)
  HO-1 mRNA level relative to control: 2.4 and 3.9
HO-1 mRNA; THLE2 liver cells, qRT-PCR
  increase of HO1 mRNA level: 3 folds
mice; 50 mg/kg IP qD(1-14), Treat Day 2
  % wt change (average): -3.1%
mice; 50 mg/kg IP qD(1-14), Treat Day 3
  % wt change (average): -3.0%
mice; 50 mg/kg IP qD(1-14), Treat Day 3, n=5
  ave. wgt. (mouse body weight): 25.5 gm
mice; 50 mg/kg IP qD(1-14), Treat Day 4
  % wt change (average): -3.1%
mice; 50 mg/kg IP qD(1-14), Treat Day 4, n=5
  ave. wgt. (mouse body weight): 25.5 gm
mice; 50 mg/kg IP qD(1-14), Treat Day 5
  % wt change (average): -0.9%
mice; 50 mg/kg IP qD(1-14), Treat Day 5, n=5
  ave. wgt. (mouse body weight): 26.0 gm
mice; 50 mg/kg IP qD(1-14), Treat Day 6
  % wt change (average): -1.3%
mice; 50 mg/kg IP qD(1-14), Treat Day 6, n=5
  ave. wgt. (mouse body weight): 25.9 gm
mice; 50 mg/kg IP qD(1-14), Treat Day 7
  % wt change (average): -1.6%
mice; 50 mg/kg IP qD(1-14), Treat Day 7, n=5
  ave. wgt. (mouse body weight): 25.8 gm
mice; 50 mg/kg IP qD(1-14), Treat Day 8
  % wt change (average): -2.1%
mice; 50 mg/kg IP qD(1-14), Treat Day 8, n=5
  ave. wgt. (mouse body weight): 25.7 gm
mice; 50 mg/kg IP qD(1-14), Treat Day 9
  % wt change (average): -1.9%
mice; 50 mg/kg IP qD(1-14), Treat Day 9, n=5
  ave. wgt. (mouse body weight): 25.8 gm
mice; 50 mg/kg IP qD(1-14), Treat Day 10
  % wt change (average): -0.8%
mice; 50 mg/kg IP qD(1-14), Treat Day 10, n=5
  ave. wgt. (mouse body weight): 26.0 gm
mice; 50 mg/kg IP qD(1-14), Treat Day 11
  % wt change (average): -3.6%
mice; 50 mg/kg IP qD(1-14), Treat Day 11, n=5
  ave. wgt. (mouse body weight): 25.3 gm
mice; 50 mg/kg IP qD(1-14), Treat Day 12
  % wt change (average): -2.5%
mice; 50 mg/kg IP qD(1-14), Treat Day 12, n=5
  ave. wgt. (mouse body weight): 25.6 gm
mice; 50 mg/kg IP qD(1-14), Treat Day 13
  % wt change (average): -2.7%
mice; 50 mg/kg IP qD(1-14), Treat Day 13, n=5
  ave. wgt. (mouse body weight): 25.6 gm
mice; 50 mg/kg IP qD(1-14), Treat Day 14
  % wt change (average): -4.9%
mice; 50 mg/kg IP qD(1-14), Treat Day 14, n=5
  ave. wgt. (mouse body weight): 25.0 gm
mice; [1]
  ALT: 34 and 26 and 24 and 31
  AST: 57 and 46 and 61 and 55 and 35
mice; Hemavet Values, individual male mouse, 50 mg/kg, 14 day, vehicle 20% PCP
  PDW: 0%
mice; [2]
  BA#: 0.01 K/uL and 0.09 K/uL and 0.05 K/uL and 0.13 K/uL
  BA%: 0.11% and 0.74% and 1.42% and 0.22% and 1.34%
  EO#: 0.05 K/uL and 0.22 K/uL and 0.08 K/uL and 0.02 K/uL and 0.52 K/uL
  EO%: 0.65% and 1.86% and 2.37% and 0.68% and 5.39%
  HB: 12.9 g/dL and 12.5 g/dL and 10.2 g/dL and 11.4 g/dL and 11.5 g/dL
  HCT: 37.7% and 38.6% and 31.1% and 36.4% and 34.1%
  LY#: 5.23 K/uL and 7.93 K/uL and 2.4 K/uL and 1.63 K/uL and 5.65 K/uL
  LY%: 69.39% and 68.59% and 72.26% and 71.36% and 58.57%
  MCH: 14.5 pg and 13.7 pg and 14.3 pg
  MCHC: 34.2 g/dL and 32.4 g/dL and 32.8 g/dL and 31.3 g/dL and 33.7 g/dL
  MCV: 42.5 fL and 42.4 fL and 41.9 fL and 43.7 fL
  MO#: 0.42 K/uL and 0.63 K/uL and 0.21 K/uL and 0.22 K/uL
  MO%: 5.58% and 5.49% and 6.31% and 9.5% and 6.52%
  MPV: 4.9 fL and 4.7 fL and 5.2 fL and 5.7 fL and 4.8 fL
  NE#: 1.83 K/uL and 2.69 K/uL and 0.59 K/uL and 0.42 K/uL and 2.72 K/uL
  NE%: 24.26% and 23.31% and 17.63% and 18.24% and 28.19%
  PLT: 900 K/uL and 866 K/uL and 228 K/uL and 177 K/uL and 757 K/uL
  RBC: 8.88 M/uL and 9.11 M/uL and 7.43 M/uL and 8.33 M/uL and 8.03 M/uL
  RDW: 17.1% and 16.5% and 17.2% and 17.7%
  WBC: 7.54 K/uL and 11.56 K/uL and 3.32 K/uL and 2.28 K/uL and 9.64 K/uL
mice; [3]
  whole animal: 24.600
  AdrenalGlands: 0.007
  Brain: 0.448
  Epidimydes (paired): 0.106
  Heart: 0.104
  KidneyL: 0.187
  KidneyR: 0.192
  Liver: 1.500
  Spleen: 0.075
  Testes (paired): 0.230
  Thymus: 0.025
mice; [4]
  whole animal: 25.300 and 25.200 and 26.400 and 27.400
  AdrenalGlands: 0.005 and 0.010
  Brain: 0.465 and 0.450 and 0.445 and 0.462
  Epidimydes (paired): 0.091 and 0.076 and 0.086 and 0.084
  Heart: 0.120 and 0.111 and 0.127 and 0.122
  KidneyL: 0.188 and 0.165 and 0.173 and 0.199
  KidneyR: 0.201 and 0.208 and 0.193 and 0.207
  Liver: 1.540 and 1.722 and 1.680
  Spleen: 0.063 and 0.074 and 0.062 and 0.093
  Testes (paired): 0.224 and 0.227 and 0.237 and 0.193
  Thymus: 0.088 and 0.032 and 0.029 and 0.028
mice; [5]
  alterations in hematologic parameters: no meaningful alterations
  changes in body weights or organ weights: no changes
  tolerability: well tolerated
mice; [6]
  Absolute organ weight, Adrenal glands (paired): 0.006 ± 0.002 g
  Absolute organ weight, Brain: 0.454 ± 0.009 g
  Absolute organ weight, Epididymis (paired): 0.089 ± 0.011 g
  Absolute organ weight, Heart: 0.117 ± 0.009 g
  Absolute organ weight, L kidney: 0.182 ± 0.013 g
  Absolute organ weight, Liver: 1.596 ± 0.098 g
  Absolute organ weight, R kidney: 0.200 ± 0.007 g
  Absolute organ weight, Spleen: 0.073 ± 0.013 g
  Absolute organ weight, Testes (paired): 0.222 ± 0.017 g
  Absolute organ weight, Thymus: 0.040 ± 0.027 g
  Body weights: 25.78 ± 1.11 g
  Hematocrit: 35.58 ± 3.02%
  Hemoglobin: 11.70 ± 1.06 g/dL
  MCH: 13.98 ± 0.39 pg
  MCHC: 32.88 ± 1.13 g/dL
  MCV: 42.60 ± 0.66 fL
  MPV: 5.06 ± 0.40 fL
  Platelets: 585.6 ± 354.1 10e3/uL
  RBC: 8.36 ± 0.67 10e6/ul
  RDW: 17.12 ± 0.43%
  Relative organ weight, Adrenal glands (paired): 0.02 ± 0.01 % of body weight
  Relative organ weight, Brain: 1.76 ± 0.07 % of body weight
  Relative organ weight, Epididymis (paired): 0.35 ± 0.05 % of body weight
  Relative organ weight, Heart: 0.45 ± 0.02 % of body weight
  Relative organ weight, L kidney: 0.71 ± 0.05 % of body weight
  Relative organ weight, Liver: 6.19 ± 0.19 % of body weight
  Relative organ weight, R kidney: 0.78 ± 0.04 % of body weight
  Relative organ weight, Spleen: 0.28 ± 0.04 % of body weight
  Relative organ weight, Testes (paired): 0.86 ± 0.09 % of body weight
  Relative organ weight, Thymus: 0.16 ± 0.11 % of body weight
  WBC: 6.868 ± 3.993 10e3/ul
mice; mice, 50 mg/kg IP, 14 days
  Microscopic finding, Epididymis: Sperm granuloma: 0/10
  Microscopic finding, Liver: Necrosis, random: 0/5
  Microscopic findings, Adrenal Glands: 0/8
  Microscopic findings, Cecum: 0/5
  Microscopic findings, Colon: 0/5
  Microscopic findings, Heart: 0/5
  Microscopic findings, Kidneys: 0/10
  Microscopic findings, Lung: 0/5
  Microscopic findings, Mesenteric lymph node: 0/5
  Microscopic findings, Pancreas: 0/5
  Microscopic findings, Small intestine: 0/5
  Microscopic findings, Spleen: 0/5
  Microscopic findings, Sternal bone marrow: 0/5
  Microscopic findings, Stomach: 0/5
  Microscopic findings, Thymus: 0/5
  Microscopic findings, Urinary bladder: 0/5
mice; [7]
  RelGonads: 0.935
  Relative KidneyL: 0.760
  RelativeHeart: 0.423
  RelativeKidneyR: 0.780
  RelativeLiver: 6.098
  RelativeSpleen: 0.305
  RelativeThymus: 0.102
  RelAdrenGl: 0.028
  RelBrain: 1.821
  RelEpid: 0.431
mice; [8]
  RelGonads: 0.885 and 0.901 and 0.898 and 0.704
  Relative KidneyL: 0.743 and 0.655 and 0.726
  RelativeHeart: 0.474 and 0.440 and 0.481 and 0.445
  RelativeKidneyR: 0.794 and 0.825 and 0.731 and 0.755
  RelativeLiver: 6.087 and 6.111 and 6.523 and 6.131
  RelativeSpleen: 0.249 and 0.294 and 0.235 and 0.339
  RelativeThymus: 0.348 and 0.127 and 0.110
  RelAdrenGl: 0.020 and 0.019 and 0.037
  RelBrain: 1.838 and 1.786 and 1.686
  RelEpid: 0.360 and 0.302 and 0.326 and 0.307
mice; [9]
  ALT: 28.2 ± 4.1 U/L
  AST: 50.8 ± 10.4 U/L
